Assay results published in US8007790B2, “Methods for treating polycystic kidney disease (PKD) or other cyst forming diseases” (Stowers Institute for Medical Research, priority 2006, dated 2011).
{P} = phosphate

What was measured:
Pkd2+/- mice [1] = test: Cyst formation in Pkd2+/- mice treated with etanercept; format: in vivo; settings: 25 μg/mouse/week, 10 weeks, n=14; PBS control 25% (n=16); Fisher's exact test p=0.05
Method: Chronic inhibition of FIP2 expression by a FIP2 inhibitor such as a TNF-alpha inhibitor may alleviate cyst formation. For the TNF-alpha inhibitor etanercept (AMGEN, Thousand Oaks, Calif.), treatment experiments, mice were intraperitoneally injected weekly, from week 8.5 (day 60) to week 18.5 (day 130), with 25 μg of etanercept per mouse per week or phosphate buffered saline (PBS).
To this end, 8-week old Pkd2+/− mice were treated with either etanercept […] administered at 25 μg/mouse/week), or phosphate buffered saline (PBS) in the control group. […] This frequency is consistent with that reported previously (21%, n=29). Remarkably, none of etanercept-treated mice developed kidney cysts (n=14).

[2] = system: PC2 localization in IMCD cells; test: Rescue of PC2 localization by FIP2 siRNA in TNF-alpha treated IMCD cells (immunostaining); format: cell-based
Method: (§1) RNAi specific to FIP2 was used to test if the effect of TNF-alpha on PC2 localization was FIP2-dependent. IMCD cells were transfected with siRNA specific for FIP2 to determine if FIP2 caused mislocalization of PC2 upon TNF-alpha induction.
(§2) The transfection was performed using the DharmaFECT siRNA transfection reagent (Dharmacon, Chicago, Ill.) according to the manufacturer's protocol.
In FIGS. 1C and 1 D, anti-PC2 antibodies (96525 FIG. 1C; YCC2 FIG. 1D) at a concentration of 1:500 were used to determine whether FIP2 siRNA reduces or eliminates FIP2 expression to restore PC2 localization in TNF-alpha treated IMCD cells.
(§3) In FIG. 7A, 4 different siRNAs against FIP2 were transfected into IMCD cells. In FIG. 7B, a Western blot was performed as described above using anti-FIP2 antibody to determine FIP2 levels in IMCD cells, which were transfected with siRNA#05 (SEQ ID NO: 2) and #08 (SEQ ID NO: 8) and then treated with TNF-alpha for 16 hours. In FIGS. 7C-7F, immunostaining was performed as described above with 96525 anti-PC2 antibody or YCC2 anti-PC2 antibody at a concentration of 1:500 with IMCD cells transfected with siRNA#08 (SEQ ID NO: 8) before and after TNF-alpha induction.

FIP2 [3] = test: FIP2 siRNA knock-down of FIP2 expression in IMCD cells (Western blot); format: cell-based; settings: transfected IMCD cells, comparison of 4 siRNAs
Method: as §1, §2, §3

IMCD cells = format: cell-based
Method: To confirm that localization of PC2 was not due to cell death, a TUNEL Assay was performed. Cells treated with or without TNF-alpha were fixed with 4% PFA. The TUNEL assay was performed using a fluorescent apoptosis-detection system (R&D systems, Minneapolis, Minn.) according to the manufacturer's instructions. Fixed cells were treated with TACS-nuclease for the positive control.

[4] = system: cultured embryonic kidneys (E15.5); test: Mouse embryonic kidney organ culture cyst formation assay
Method: Embryonic kidneys were dissected in PBS (with calcium and magnesium) plus penicillin-streptomycin-glutamine (GiBCO, Grand Island, N.Y.) from embryos of wild type CD1 mice at E15.5, E16.5 or E17.5 and of C57BL/6 Pkd1+/− or C57BL/6 Pkd2+/− mice or their wild type counterparts at E15.5. The dissected kidneys were cultured at 37° C. in DMEM/F12 containing 2 mM L-glutamine, 10 mM Hepes, 5 μg/ml insulin, 5 μg/ml transferrin, […] selenium, 25 ng/ml prostaglandin E1, 32 pg/ml T3 and 250 IU/ml penicillin-streptomycin. The kidneys were cultured with or without TNF-alpha (Genzyme Diagnostic, Cambridge, Mass.) at different concentrations for 48 hours and then 50 μM 8-Bromo-cyclic AMP (Sigma, St. Louis, Mo.) was added for 5 days. The cultured kidneys were then fixed with 4% paraformaldehyde (PFA) in PBS for 6 hours, washed with PBS twice for 5 minutes each, and transferred to 70% EtOH for short-term storage at room temperature or for more extended storage at 4° C. The fixed kidney samples were subsequently processed for Hematoxylin and Eosin staining following a common histology protocol.
To test the effect of TNF-alpha treatment, the culture conditions were modified using E15.5 kidneys and a low concentration of cAMP, such that there was no cyst formation (0/32 kidneys observed) in the absence of TNF-alpha (see top panel FIGS. 2A and 2B). […] (FIG. 2B). […] Thus, in FIG. 2B, treatment with different concentrations of TNF-alpha for 5 days triggered cyst formation in Pkd2+/− cultured kidneys from E15.5 embryos.

[5] = system: PC2 localization in inner medullary collecting duct (IMCD) cells; test: Immunofluorescence of PC2 localization in IMCD cells after TNF-alpha induction; format: cell-based
Method: […] IMCD (ATCC catalog no. CRL-2123) cells were cultured in Dulbecco's modified Eagle's medium/F12 medium supplemented with 10% (v/v) fetal bovine serum (Invitrogen). Then, these cells were induced with TNF-alpha at a final concentration of 200 ng/ml. Immunofluorescence of the IMD cells was performed before and after 16 hours of TNF-alpha exposure.
Immunofluorescence was carried out as previously described. Li et al, Polycystin-1 and polycystin-2 regulate the cell cycle through the helix-loop-helix inhibitor Id2. Nat Cell Biol, 7(12):1202-12 (2005). Primary antibodies were used at the following dilutions: FIP2 (1:100), PC1 (1:500), PC2 (1:500), and flag (1:500). Secondary antibodies used included goat-anti-rabbit IgG-fluorescein isothiocyanate (Molecular Probes, Eugene, Oreg.) and goat-anti-mouse IgG-Texas Red (1:500 dilution; Molecular Probes). Images were captured on an inverted microscope (Axiovert 200M, Carl Zeiss, inc.) equipped with a spinning disc confocal head (Yogogawa), Argon-Krypton laser system (Prairie Technologies, Inc.), and ORCA-ER CCD camera (Hamamatsu). Images were acquired using the Metamorph software (Molecular Devices) and 3D image reconstruction was performed using the Volocity (Improvision, Inc.) software.
The disruption of PC2 localization by TNF-alpha was further confirmed using immunoprecipitation, western blotting, and a TUNEL Assay. […]

FIP2 [6] = test: Immunoblot of FIP2 level in TNF-alpha treated IMCD cells; format: cell-based
Method: (§4) The disruption of PC2 localization by TNF-alpha was further confirmed using immunoprecipitation, western blotting, and a TUNEL Assay. Immunoprecipitation and Western blotting were performed on whole-cell lysates as previously described. Li et al, Polycystin-1 and polycystin-2 regulate the cell cycle through the helix-loop-helix inhibitor Id2. Nat Cell Biol, 7(12):1202-12 (2005). The antibodies used for Western blotting included rabbit polyclonal anti-FIP2 51, rabbit anti-PC2 polyclonal antibody 96525 50, rabbit anti-PC1 polyclonal antibody 96521, rabbit anti-Rab8 polyclonal antibody and rabbit anti-TNFR-I polyclonal antibody. Secondary antibodies used included: goat-anti-rabbit IgG-fluorescein isothiocyanate (FITC Molecular Probes, Eugene, Oreg.), goat-anti-mouse IgG-Texas Red, (1:500 dilution; Molecular Probes). For western blotting, goat-anti-rabbit IgG-horseradish peroxidase (HRP or goat-anti-mouse IgG-HRP, 1:10,000 dilution; Amersham Pharmacia Biotech) were used as secondary antibodies.
(§5) Primary cell cultures were prepared as described previously. The cells were propagated in DMEM/F12 supplemented with 5% FBS, 5 μg/ml insulin, 5 μg/ml transferrin and 5 ng/ml sodium selenite (ITS) and 100 IU/ml penicillin G and 0.1 mg/ml streptomycin. […]

Pkd2+/- mice [7] = test: Cyst formation in Pkd2+/- mice injected with TNF-alpha; format: in vivo; settings: 5 μg/mouse/week intraperitoneal, week 4 to week 8.5; control 0 of 10; Fisher's exact test p=0.04
Method: The in vitro results described above indicate that TNF-alpha may be a strong physiological modifier of FIP2 that promotes the ADPKD disease phenotype at the organismal level. To test this hypothesis in vivo, 4 week old Pkd2+/− mice were directly injected intra-peritoneally with TNF-alpha (5 μg/mouse, 1 injection/wk) for 4 weeks. Pkd2 mutant mice (Pkd2-183) were kindly provided by Stephan Somlo (Yale University). For TNF-alpha (Genzyme Diagnostic, Cambridge, Mass.) treatment experiments, mice were intraperitoneally injected weekly, from week 4 (day 28) to week 8.5 (day 60), with 5 μg of TNF-alpha per mouse per week or phosphate buffered saline (PBS). 9-17 week old Pkd2+/− mice developed cysts at a frequency of 0.21. Accordingly, the natural frequency of cyst formation may be much lower in the 4 week olds.

[8] = system: TNF-alpha receptor (TNFR); test: Immunoblot of TNFR level in TNF-alpha treated IMCD cells; format: cell-based
Method: as §4, §5

## etanercept
Pkd2+/- mice [1]
  mice that developed kidney cysts: none

## siRNA#08: siRNA against FIP2 (Dharmacon); sense SEQ ID NO: 7, antisense SEQ ID NO: 8 (sense CCAUGAAGCUAAAUAAUCAUU; antisense UGAUUAUUUAGCUUCAUGGUU; sense: RNA, backbone not given here; antisense: RNA, 5' {P}, backbone not given here)
[2]; immunostaining with 96525 anti-PC2 antibody
  PC2 localization after TNF-alpha induction: rescued the TNF-alpha effect on PC2 localization
[2]; immunostaining with YCC2 anti-PC2 antibody
  PC2 cilia localization after TNF-alpha induction: rescued the PC2 cilia localization
FIP2 [3]
  effect on FIP2 expression: strongest effect

## TNF-alpha
IMCD cells
  TUNEL staining (cell death): negative for TUNEL staining
[4]; Pkd2+/- embryonic kidneys, 5 days
  lowest TNF-alpha concentration resulting in cyst formation: 1.5 ng/mL
[4]; wild type embryonic kidneys, 6.25-12.5 ng/ml TNF-alpha, five days, low cAMP
  cultured kidneys with cyst formation: 20/20
[4]; wild type embryonic kidneys, five days
  lowest TNF-alpha concentration resulting in cyst formation: 6.25 ng/mL
[5]; 200 ng/ml TNF-alpha, 16 hours, anti-PC2 antibody 96525
  cells showing loss of PC2 staining at the plasma membrane and cilia: 100%
[5]; TNF-alpha 16 hr, YCC2 anti-PC2 antibody, confocal microscopy
  PC2 cilia localization: loss of PC2 localization along the primary cilia
FIP2 [6]
  induction of FIP2 level: 2 fold
Pkd2+/- mice [7]
  mice that developed unilateral cysts: 4 of the 10
[8]
  increase of TNFR levels: 35%
